target: T1, Interstitial collagenase (Homo sapiens, UniProt P03956); assay: Inhibition of human fibroblast collagenase
T1 sequence (P03956 whole entry): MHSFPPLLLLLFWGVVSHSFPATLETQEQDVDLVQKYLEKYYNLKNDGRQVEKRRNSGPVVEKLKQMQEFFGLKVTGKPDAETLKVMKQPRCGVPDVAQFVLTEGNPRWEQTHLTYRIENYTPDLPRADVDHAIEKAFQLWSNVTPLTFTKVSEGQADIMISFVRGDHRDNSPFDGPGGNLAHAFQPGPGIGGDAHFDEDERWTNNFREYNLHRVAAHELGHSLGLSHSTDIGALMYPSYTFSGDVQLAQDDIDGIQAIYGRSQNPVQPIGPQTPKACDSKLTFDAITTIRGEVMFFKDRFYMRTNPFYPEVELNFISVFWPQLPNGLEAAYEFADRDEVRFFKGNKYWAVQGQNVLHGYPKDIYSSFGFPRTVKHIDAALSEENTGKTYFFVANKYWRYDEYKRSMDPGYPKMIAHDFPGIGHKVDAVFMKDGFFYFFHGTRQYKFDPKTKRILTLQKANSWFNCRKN

Row | Structure (SMILES) | IC50 [nM]
1 | CNC(=O)[C@H](Cc1ccccc1)NC(=O)[C@H](CC(C)C)NC(CCN1C(=O)c2ccccc2C1=O)P(=O)(O)O (stereo not given in full) | 360
2 | CNC(=O)[C@H](Cc1ccccc1)NC(=O)[C@H](CC(C)C)N[C@@H](CCN1C(=O)c2cccc3c(Br)ccc(c23)C1=O)P(=O)(O)O | 20
3 | CNC(=O)[C@H](Cc1ccccc1)NC(=O)[C@H](CC(C)C)NC(CN1C(=O)c2cccc3cccc(c23)C1=O)P(=O)(O)O (stereo not given in full) | 2120
4 | CNC(=O)[C@H](Cc1ccccc1)NC(=O)[C@H](CC(C)C)NC(CCN1C(=O)c2cccc3cccc(c23)C1=O)[PH](=O)O (stereo not given in full) | > 100000
5 | CNC(=O)[C@H](Cc1ccccc1)NC(=O)[C@H](CC(C)C)N[C@@H](CCN1C(=O)c2ccccc2C1=O)P(=O)(O)O | 190
6 | CNC(=O)[C@H](Cc1ccccc1)NC(=O)[C@H](CC(C)C)N[C@@H](CCN1C(=O)c2cccc3cccc(c23)C1=O)P(=O)(O)O | 30

Second part, the compound after the results:

Row | IC50 [nM] | Structure (SMILES)
7 | 37000 | CNC(=O)[C@H](CC(C)C)NC(=O)[C@H](CC(C)C)CP(=O)(O)CNC(C)=O
8 | 730 | CNC(=O)[C@H](Cc1ccccc1)NC(=O)[C@H](CC(C)C)NC(CCCN1C(=O)c2cccc3cccc(c23)C1=O)P(=O)(O)O (stereo not given in full)
9 | 150 | CNC(=O)[C@H](Cc1ccccc1)NC(=O)[C@H](CC(C)C)N[C@H](CCN1C(=O)c2cccc3cccc(c23)C1=O)P(=O)(O)O
10 | 1630 | CNC(=O)[C@H](Cc1ccccc1)NC(=O)[C@H](CC(C)C)N[C@H](CCN1C(=O)c2cccc3c(Br)ccc(c23)C1=O)P(=O)(O)O

From ChEMBL document CHEMBL1127722, “Aminophosphonic acid containing inhibitors of human collagenase: modification of the P1 residue” (Bioorg Med Chem Lett, 1994)
